# pEC50: −log10 of the molar value. Where two headings read alike, the source gives them in different places.
# Tests used:
# [1] = biological target: T1, prion protein (recombinant mouse PrP, recPrP) (Mus musculus, UniProt P04925); test: biochemical
# T1 construct: gene Prnp
# [2] = biological target: T1, prion protein (recombinant mouse PrP, recPrP); test: biochemical; remark: listed apart in the source
# [3] = biological target: T1, prion protein (recombinant mouse PrP, recPrP); type: biochemical
# T1 sequence (P04925 23-231 limits assumed): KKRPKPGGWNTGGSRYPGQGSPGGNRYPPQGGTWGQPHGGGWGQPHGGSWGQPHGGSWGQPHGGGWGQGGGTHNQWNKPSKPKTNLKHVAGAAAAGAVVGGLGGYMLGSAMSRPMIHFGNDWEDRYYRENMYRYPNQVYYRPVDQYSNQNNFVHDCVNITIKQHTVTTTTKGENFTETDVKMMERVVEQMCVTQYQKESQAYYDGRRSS
smiles,measurement,setting,value
CCOc1cc(C(=O)NNC(=S)Nc2ccc(Cl)cc2)c(O)c2ccccc12 [7y],pEC50,[1],5.30
O=C(NNC(=S)Nc1ccc(Cl)cc1)c1cc2cccc(O)c2cc1O [7x],pEC50,[2],5.34
Cc1cc(Nc2ccc(NC(=O)c3ccc(Nc4ccnc5ccccc45)cc3)cc2)nc(N)n1 [SGI-1027],"PrP aggregate formation assay (ThT fluorescence) with purified recPrP, single co",[3],The anti-PrP aggregation activity of 7x and 7y was further compared to that of SGI-1027 (a positive control).

# Source: paper PMC10038035 (Journal of Enzyme Inhibition and Medicinal Chemistry, 2023)
